In PMC11785709, “Angelica gigas Nakai (Korean Dang-gui) Root Alcoholic Extracts in Health Promotion and Disease Therapy – active Phytochemicals and In Vivo Molecular Targets” (Pharmaceutical Research, 2025):
“And” between values parts separate entries of the source, which are not always exact repeats. Identical values can stand only once. Like-named read-outs stand apart in the source and are kept apart here.

Experiments:
[1] = target: T1, ROCK2 (Homo sapiens, UniProt O75116); assay: Reaction Biology kinase activity inhibition; type: biochemical; design: purchased Reaction Biology (Malvern, PA)
From the text: (§1) The second screening was the Reaction Biology® (Malvern, PA) kinase activity inhibition tests, which screened for more than 600 protein kinases and lipid kinases, using miniaturized radioisotope-based assay platform with γ-^33P-ATP, followed by confirmation with IC50 kinase profiling service with 5 concentrations of test compound (i.e., DOH and DA) with curve fitting.

[2] = target: T2, ROCK1 (Homo sapiens, UniProt Q13464); assay: Reaction Biology kinase activity inhibition; type: biochemical; design: purchased Reaction Biology (Malvern, PA)
From the text: as §1

[3] = test system: human MAO-A; design: method as in PMID 28109809; conditions: cited from earlier work; for IC50: read-out: MAO-A inhibition IC50
[4] = target: T1, ROCK2; assay: KINOMEscan competition binding; design: purchased Eurofins DiscoverX (KINOMEscan)
Procedure: (§2) Two distinct platforms were used for initial screening with 50 µM DOH vs. DMSO vehicle. The first was the Eurofins DiscoverX KINOMEscan® (Freemont, CA USA) profiling platform, which employed a proprietary active site-directed competition binding assay to quantitatively measure interactions between a test compound (i.e., DOH) and 468 human protein kinases and disease relevant mutant variants either directly (sterically) or indirectly (allosterically) to prevent a kinase binding to its immobilized substrate (ligand). The top 8 hits were subjected to secondary screening verification by DOH concentration-titration for dissociation constant (Kd). For ROCK1 and ROCK2, DA was chosen for Kd titration as well, because it is ~ 10 × higher than D in peripheral circulation due to its resistance to hydrolysis by carboxyesterase-2 (Fig. 1C).

[5] = target: T2, ROCK1; assay: KINOMEscan competition binding; design: purchased Eurofins DiscoverX (KINOMEscan)
Procedure: as §2

[6] = cited from earlier work; for Cmax: 4.6 g AGN root powder per subject (0.055 mg D, 0.184 mg DA, 1.095 mg nodakenin); for t1/2 / tmax: 4.6 g AGN root powder per subject
[7] = target: T3, DRAK2 (STK17B) (Homo sapiens, UniProt O94768); assay: KINOMEscan competition binding; conditions: for Kd: validation Kd titration, 0.003 to 50 µM, two values per cell
T3 construct: purchased Eurofins DiscoverX (KINOMEscan)
T3 sequence (O94768 1-372): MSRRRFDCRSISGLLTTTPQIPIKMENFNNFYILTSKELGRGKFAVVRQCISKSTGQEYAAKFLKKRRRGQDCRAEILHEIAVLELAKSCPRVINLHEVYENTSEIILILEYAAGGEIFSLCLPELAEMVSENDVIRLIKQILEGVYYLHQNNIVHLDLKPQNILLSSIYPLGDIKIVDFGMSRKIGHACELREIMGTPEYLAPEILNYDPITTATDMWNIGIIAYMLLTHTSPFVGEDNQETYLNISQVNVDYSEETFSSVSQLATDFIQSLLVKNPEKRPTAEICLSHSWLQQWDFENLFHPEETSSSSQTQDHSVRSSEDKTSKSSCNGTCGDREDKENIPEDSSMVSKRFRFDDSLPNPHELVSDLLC
Procedure: as §2

[8] = target: T4, MKNK2 (Homo sapiens, UniProt Q9HBH9); assay: KINOMEscan competition binding; conditions: for Kd: validation Kd titration, 0.003 to 50 µM, two values per cell
T4 construct: purchased Eurofins DiscoverX (KINOMEscan)
Procedure: as §2

[9] = test system: MAO-B; design: method as in PMID 28109809; conditions: screened at 10 μM; cited from earlier work
[10] = test system: AR; ERα; conditions: cited from earlier work; for mode of action on AR and ERα: responsive cancer cell culture models
[11] = target: T5, DDR1 (Homo sapiens, UniProt Q08345); assay: Reaction Biology kinase activity inhibition; type: biochemical; conditions: for IC50: validation titration, 6.25 to 100 µM, Hotspot confirmation
T5 construct: purchased Reaction Biology (Malvern, PA)
From the text: as §1

[12] = target: T6, BRSK2 (Homo sapiens, UniProt Q8IWQ3); assay: Reaction Biology kinase activity inhibition; type: biochemical; conditions: for IC50: validation titration, 6.25 to 100 µM, Hotspot confirmation
T6 construct: purchased Reaction Biology (Malvern, PA)
T6 sequence (Q8IWQ3 1-736): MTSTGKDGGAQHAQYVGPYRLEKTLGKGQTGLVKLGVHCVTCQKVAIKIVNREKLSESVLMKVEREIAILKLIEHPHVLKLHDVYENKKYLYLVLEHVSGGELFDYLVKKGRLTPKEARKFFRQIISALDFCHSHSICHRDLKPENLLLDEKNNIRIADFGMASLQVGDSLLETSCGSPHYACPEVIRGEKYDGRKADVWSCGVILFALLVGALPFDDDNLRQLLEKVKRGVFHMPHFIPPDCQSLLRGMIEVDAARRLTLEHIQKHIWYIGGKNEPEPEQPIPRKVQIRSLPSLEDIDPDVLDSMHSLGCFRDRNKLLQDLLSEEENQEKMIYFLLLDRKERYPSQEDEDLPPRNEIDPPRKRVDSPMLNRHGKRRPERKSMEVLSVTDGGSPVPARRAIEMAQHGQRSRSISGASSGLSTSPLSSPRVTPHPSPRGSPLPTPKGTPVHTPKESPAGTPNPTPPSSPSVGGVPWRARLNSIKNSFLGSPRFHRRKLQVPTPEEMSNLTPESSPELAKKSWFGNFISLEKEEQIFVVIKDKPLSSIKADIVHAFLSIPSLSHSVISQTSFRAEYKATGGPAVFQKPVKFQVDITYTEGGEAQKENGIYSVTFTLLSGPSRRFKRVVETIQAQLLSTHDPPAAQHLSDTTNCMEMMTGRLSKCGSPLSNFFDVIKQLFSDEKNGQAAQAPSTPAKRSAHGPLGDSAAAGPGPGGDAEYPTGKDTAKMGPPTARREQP
From the text: as §1

[13] = target: T7, PDK2/PDHK2 (Homo sapiens, UniProt Q15119); assay: Reaction Biology kinase activity inhibition; type: biochemical; conditions: for IC50: validation titration, 6.25 to 100 µM, Hotspot confirmation
T7 construct: purchased Reaction Biology (Malvern, PA)
From the text: as §1

[14] = Reaction Biology, Inc, Table 1, read-out: ROCK2 IC50
[15] = initial screening, DOH (50 µM), Data 1 and Data 2
[16] = initial screening, DOH (50 µM), Data 1 and Data 2, read-out: % Enzyme Activity (relative to DMSO controls)
[17] = Reaction Biology, Inc, Table 1, read-out: ROCK1 IC50
[18] = Eurofins DiscoveRx, Table 1, read-out: ROCK2 Kd
[19] = initial screening, DOH 50 µM, read-out: Substrate bound % Control
[20] = validation Kd titration, 0.003 to 50 µM, two values per cell, read-out: Kd
[21] = Eurofins DiscoveRx, Table 1, read-out: ROCK1 Kd
[22] = validation titration, 6.25 to 100 µM, Hotspot confirmation, read-out: IC50

T2 sequence (Q13464 whole entry): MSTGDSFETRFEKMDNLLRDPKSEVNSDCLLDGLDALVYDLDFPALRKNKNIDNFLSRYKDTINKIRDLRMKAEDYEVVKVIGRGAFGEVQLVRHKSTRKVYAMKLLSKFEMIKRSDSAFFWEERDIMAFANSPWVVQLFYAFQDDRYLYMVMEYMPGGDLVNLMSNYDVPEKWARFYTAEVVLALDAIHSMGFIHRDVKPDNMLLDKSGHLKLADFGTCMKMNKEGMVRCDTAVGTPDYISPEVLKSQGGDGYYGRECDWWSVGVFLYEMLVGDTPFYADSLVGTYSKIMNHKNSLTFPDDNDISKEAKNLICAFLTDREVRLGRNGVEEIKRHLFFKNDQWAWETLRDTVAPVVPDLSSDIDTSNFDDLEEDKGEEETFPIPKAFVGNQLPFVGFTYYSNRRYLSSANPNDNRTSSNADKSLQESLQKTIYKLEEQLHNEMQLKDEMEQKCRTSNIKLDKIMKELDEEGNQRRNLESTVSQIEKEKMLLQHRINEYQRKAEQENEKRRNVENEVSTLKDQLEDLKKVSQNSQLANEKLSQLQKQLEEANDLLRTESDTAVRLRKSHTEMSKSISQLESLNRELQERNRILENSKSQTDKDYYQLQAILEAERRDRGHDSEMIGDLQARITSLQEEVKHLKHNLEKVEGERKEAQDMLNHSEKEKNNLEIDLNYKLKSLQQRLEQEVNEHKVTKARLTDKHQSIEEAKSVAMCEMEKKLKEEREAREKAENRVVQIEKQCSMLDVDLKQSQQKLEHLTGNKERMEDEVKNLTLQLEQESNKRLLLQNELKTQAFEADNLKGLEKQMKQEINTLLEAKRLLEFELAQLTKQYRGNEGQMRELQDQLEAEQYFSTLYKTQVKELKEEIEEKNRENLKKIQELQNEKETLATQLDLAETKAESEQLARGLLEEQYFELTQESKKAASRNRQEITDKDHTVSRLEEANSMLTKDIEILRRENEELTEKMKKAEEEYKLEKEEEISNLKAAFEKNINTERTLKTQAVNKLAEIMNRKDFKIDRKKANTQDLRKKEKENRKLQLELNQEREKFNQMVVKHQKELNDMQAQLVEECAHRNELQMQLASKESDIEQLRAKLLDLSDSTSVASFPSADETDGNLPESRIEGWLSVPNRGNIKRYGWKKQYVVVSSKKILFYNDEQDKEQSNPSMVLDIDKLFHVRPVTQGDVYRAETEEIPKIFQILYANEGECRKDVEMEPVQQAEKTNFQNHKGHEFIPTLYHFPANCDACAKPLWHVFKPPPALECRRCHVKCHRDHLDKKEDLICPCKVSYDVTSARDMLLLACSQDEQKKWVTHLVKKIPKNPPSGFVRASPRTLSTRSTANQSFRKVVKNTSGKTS
T5 sequence (Q08345 19-913): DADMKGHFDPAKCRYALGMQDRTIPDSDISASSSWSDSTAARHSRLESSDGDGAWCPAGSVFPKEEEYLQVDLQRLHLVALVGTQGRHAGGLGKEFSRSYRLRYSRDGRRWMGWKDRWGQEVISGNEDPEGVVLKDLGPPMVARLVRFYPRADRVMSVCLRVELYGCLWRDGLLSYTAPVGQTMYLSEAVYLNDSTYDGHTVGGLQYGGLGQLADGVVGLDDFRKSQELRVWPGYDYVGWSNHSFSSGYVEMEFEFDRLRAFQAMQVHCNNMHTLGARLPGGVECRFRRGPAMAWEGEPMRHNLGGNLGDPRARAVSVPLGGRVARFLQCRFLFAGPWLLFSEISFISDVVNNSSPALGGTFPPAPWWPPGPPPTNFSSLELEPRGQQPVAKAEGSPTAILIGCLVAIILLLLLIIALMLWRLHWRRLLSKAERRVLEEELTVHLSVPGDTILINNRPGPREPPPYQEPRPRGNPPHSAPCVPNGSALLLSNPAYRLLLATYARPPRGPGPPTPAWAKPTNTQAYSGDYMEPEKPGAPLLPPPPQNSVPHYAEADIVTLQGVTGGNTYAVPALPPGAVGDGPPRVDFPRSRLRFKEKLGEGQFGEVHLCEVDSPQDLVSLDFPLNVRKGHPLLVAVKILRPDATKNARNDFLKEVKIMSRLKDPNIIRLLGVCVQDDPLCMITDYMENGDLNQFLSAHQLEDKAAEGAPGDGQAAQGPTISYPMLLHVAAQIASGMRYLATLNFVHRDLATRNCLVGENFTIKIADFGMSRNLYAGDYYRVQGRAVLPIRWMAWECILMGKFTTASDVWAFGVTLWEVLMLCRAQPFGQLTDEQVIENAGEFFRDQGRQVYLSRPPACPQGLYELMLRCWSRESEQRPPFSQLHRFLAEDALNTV
T1 sequence (O75116 whole entry): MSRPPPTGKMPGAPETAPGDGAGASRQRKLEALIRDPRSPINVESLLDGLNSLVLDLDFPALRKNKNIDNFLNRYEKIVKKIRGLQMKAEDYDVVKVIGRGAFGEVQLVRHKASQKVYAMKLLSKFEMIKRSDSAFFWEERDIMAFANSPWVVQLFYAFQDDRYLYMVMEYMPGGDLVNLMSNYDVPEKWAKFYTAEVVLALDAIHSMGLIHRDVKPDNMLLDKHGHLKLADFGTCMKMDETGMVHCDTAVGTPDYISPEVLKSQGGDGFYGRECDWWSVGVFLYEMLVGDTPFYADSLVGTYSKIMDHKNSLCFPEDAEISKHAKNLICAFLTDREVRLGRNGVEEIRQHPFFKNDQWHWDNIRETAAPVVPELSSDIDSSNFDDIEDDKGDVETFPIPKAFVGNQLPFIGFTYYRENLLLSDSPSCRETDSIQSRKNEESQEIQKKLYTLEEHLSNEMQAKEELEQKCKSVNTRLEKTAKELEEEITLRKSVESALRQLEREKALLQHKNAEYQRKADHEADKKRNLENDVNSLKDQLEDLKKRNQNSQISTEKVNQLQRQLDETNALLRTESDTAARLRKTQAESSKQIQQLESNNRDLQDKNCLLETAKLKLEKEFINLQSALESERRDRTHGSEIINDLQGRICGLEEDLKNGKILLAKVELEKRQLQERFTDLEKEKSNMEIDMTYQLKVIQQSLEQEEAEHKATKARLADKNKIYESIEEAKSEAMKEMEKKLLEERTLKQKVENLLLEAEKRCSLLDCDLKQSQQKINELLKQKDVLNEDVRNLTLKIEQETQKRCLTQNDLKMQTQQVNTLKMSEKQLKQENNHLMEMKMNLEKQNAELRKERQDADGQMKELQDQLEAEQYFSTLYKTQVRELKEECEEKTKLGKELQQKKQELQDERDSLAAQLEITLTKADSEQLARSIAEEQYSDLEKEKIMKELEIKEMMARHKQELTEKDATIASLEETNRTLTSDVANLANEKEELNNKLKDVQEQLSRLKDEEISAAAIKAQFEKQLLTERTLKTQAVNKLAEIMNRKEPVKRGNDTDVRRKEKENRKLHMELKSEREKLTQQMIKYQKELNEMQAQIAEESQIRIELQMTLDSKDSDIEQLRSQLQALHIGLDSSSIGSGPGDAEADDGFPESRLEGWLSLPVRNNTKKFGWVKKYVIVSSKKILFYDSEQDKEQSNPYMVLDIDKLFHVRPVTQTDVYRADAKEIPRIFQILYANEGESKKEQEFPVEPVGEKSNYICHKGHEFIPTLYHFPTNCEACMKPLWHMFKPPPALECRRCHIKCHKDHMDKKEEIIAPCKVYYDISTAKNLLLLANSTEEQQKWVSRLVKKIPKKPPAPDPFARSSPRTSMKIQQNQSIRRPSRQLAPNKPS
T4 sequence (Q9HBH9 whole entry): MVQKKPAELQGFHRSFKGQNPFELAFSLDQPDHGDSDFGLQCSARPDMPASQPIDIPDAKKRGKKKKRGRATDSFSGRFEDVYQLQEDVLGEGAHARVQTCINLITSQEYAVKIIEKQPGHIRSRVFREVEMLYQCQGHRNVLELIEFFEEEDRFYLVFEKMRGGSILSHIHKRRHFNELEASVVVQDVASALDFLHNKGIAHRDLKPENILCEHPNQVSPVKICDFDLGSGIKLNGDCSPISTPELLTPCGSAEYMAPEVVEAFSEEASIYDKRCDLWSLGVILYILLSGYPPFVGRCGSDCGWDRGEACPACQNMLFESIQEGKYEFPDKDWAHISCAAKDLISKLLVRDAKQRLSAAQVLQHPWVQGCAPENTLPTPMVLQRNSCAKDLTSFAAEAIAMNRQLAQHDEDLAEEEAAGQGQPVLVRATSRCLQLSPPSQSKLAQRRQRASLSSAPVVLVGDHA

CC1(C)Oc2cc3oc(=O)ccc3cc2C[C@@H]1O [DOH, decursinol]
IC50 [1, 14]: 85 µM | DOH % Inhibition ([1]; initial screening, DOH 50 µM): 43.2% | inhibition at 50 µM ([1]; initial screening, DOH 50 µM): 43% | % Enzyme Activity (relative to DMSO controls) [1, 15]: 56.1% | remaining activity at 50 µM [1, 16]: 57.5% | IC50 [2, 17]: 81 µM | DOH % Inhibition ([2]; initial screening, DOH 50 µM): 26.6% | inhibition at 50 µM ([2]; initial screening, DOH 50 µM): 27% | % Enzyme Activity (relative to DMSO controls) [2, 15]: 72.1% | remaining activity at 50 µM [2, 16]: 74.7% | MAO-A initial screen ([3]; at 10 μM): failed the initial screen | IC50 [3]: > 10 µM | Kd [4, 18]: 14.5 µM | remaining binding at 50 µM [4, 19]: 21% | Kd [4, 20]: 14 µM and 15 µM | Kd [5, 21]: 7.5 µM | remaining binding at 50 µM [5, 19]: 12% | Kd [5, 20]: 7.3 µM and 7.6 µM | Cmax [6]: 0.92 ng/mL | t1/2 [6]: 2.62 h | tmax [6]: 38.4 min | remaining binding at 50 µM [7, 19]: 24% | Kd [7]: 21 µM and 22 µM | remaining binding at 50 µM [8, 19]: 25% | Kd [8]: 20 µM and 25 µM | inhibitory activity on MAO-B [9]: lacked any inhibitory activity | EC50 ([10]; read-out: AR, ERα agonist EC50): ~10 µM | mode of action on AR and ERα [10]: weak partial agonist activity | inhibition at 50 µM ([11]; initial screening, DOH 50 µM): 49% | % Enzyme Activity (relative to DMSO controls) [11, 15]: 49.7% | remaining activity at 50 µM [11, 16]: 52.3% | IC50 [11]: > 100 µM | inhibition at 50 µM ([12]; initial screening, DOH 50 µM): 46.8% | % Enzyme Activity (relative to DMSO controls) [12, 15]: 52.6% | remaining activity at 50 µM [12, 16]: 53.8% | IC50 [12]: > 100 µM | inhibition at 50 µM ([13]; initial screening, DOH 50 µM): 39.7% | % Enzyme Activity (relative to DMSO controls) [13, 15]: 59.8% | remaining activity at 50 µM [13, 16]: 60.8% | IC50 [13]: > 100 µM

C/C=C(/C)C(=O)O[C@H]1Cc2cc3ccc(=O)oc3cc2OC1(C)C [DA, decursinol angelate]
IC50 [1, 14]: 23 µM | IC50 [1, 22]: 22 µM | IC50 [2, 17]: 18 µM | IC50 [2, 22]: 16 µM and 20 µM | IC50 [3]: 12.8 µM | Kd [4, 18]: 5.6 µM | Kd [4, 20]: 5.4 µM and 5.8 µM | Kd [5, 21]: 2.1 µM | Kd [5, 20]: 1.9 µM and 2.3 µM | Cmax [6]: 7.72 ng/mL | t1/2 [6]: 4.04 h | tmax [6]: 18.6 min | Kd [7]: > 50 µM | Kd [8]: > 50 µM | inhibitory activity on MAO-B [9]: lacked any inhibitory activity | IC50 ([10]; antagonist/degrader): ~5 µM | mode of action on AR and ERα [10]: antagonists/degraders | IC50 [11]: > 100 µM | IC50 [12]: > 100 µM | IC50 [13]: > 100 µM
